Laboratory results published in US8377706B2, “Olfactory receptor-functionalized transistors for highly selective bioelectronic nose and biosensor using the same” (Seoul National University Industry Foundation, priority 2008, dated 2013).

Experiments:
[1] = molecular target: T1, human olfactory receptor 2AG1 (hOR2AG1) protein (Homo sapiens, UniProt Q9H205); experiment: Conductance (source-drain current) measurement of biosensor using hOR2AG1-functionalized swCNT transistors after introduction of odorants; type: biochemical; details: for Detection Limit: lipid membranes with hOR2AG1 on swCNT-FET, odorant solution in PBS, bias 100 mV
T1 construct: made in house; host or cells: Escherichia coli
T1 sequence (Q9H205 1-316): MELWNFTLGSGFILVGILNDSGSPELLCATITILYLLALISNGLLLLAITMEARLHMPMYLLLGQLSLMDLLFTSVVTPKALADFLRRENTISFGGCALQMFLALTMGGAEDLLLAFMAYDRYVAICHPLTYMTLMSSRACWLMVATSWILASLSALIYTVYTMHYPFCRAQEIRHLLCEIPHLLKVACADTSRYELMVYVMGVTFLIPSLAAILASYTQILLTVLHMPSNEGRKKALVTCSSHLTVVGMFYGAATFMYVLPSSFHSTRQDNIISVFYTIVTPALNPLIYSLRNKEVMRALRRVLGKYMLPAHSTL
Description: 1 μl of the hOR2AG1-containing fraction collected in Example 1 was evenly spread to cover the swCNTs and electrodes, and vacuum-dried for 4 hours to fix the hOR2AG1, thereby manufacturing human olfactory receptor-functionalized carbon nanotube transistors.
(§1) To measure the effects of odorants on the biosensor using human olfactory receptor functionalized transistors, drops of 9 μl phosphate buffered saline (PBS) were placed onto the human olfactory receptor functionalized transistors manufactured in […]. Subsequently, the source-drain current was monitored after the introduction of a solution containing specific odorants. A bias voltage of 100 mV was maintained at all time during the electrical measurement (See FIG. 8).
A 1 M stock solution of the odorants was prepared, and additional dilutions (from 10^−1 M to 10^−13 M) were obtained by serial 1:10 dilutions in PBS.
Butyl butyrate, phenyl valerate, and propyl butyrate were introduced at various concentrations on the biosensors using hOR2AG1 functionalized transistors manufactured in Example 2 of the present invention, each of the conductance modulations was measured, and the results were recorded in FIGS. 14 to 16, respectively. The arrows illustrated in FIGS. 14 to 16 show time points of introduction of each odorant.

[2] = Control: conductance measurement on carbon nanotube transistors with lipid membranes in which hOR2AG1 was not included; details: lipid membranes without olfactory receptors
Description: as §1
(§2) The results are shown in FIGS. 12 and 13, respectively. As shown respectively in FIGS. 12 and 13, each of the conductance modulations was observed on the biosensors using modified carbon nanotube transistors with lipid membranes in which hOR2AG1 was not included and bare carbon nanotube transistors, after the introduction of amyl butyrate at 100 mM.

[3] = Control: conductance measurement on bare carbon nanotube transistors; details: bare CNT
Description: as §1, §2

hOR2AG1 = molecular target: T2, hOR2AG1 (Homo sapiens, UniProt Q9H205); details: known; cited from earlier work
T2 sequence (Q9H205 1-316): T1 sequence (Q9H205 1-316)

Row | SMILES | Detection Limit [1] | Effect on biosensor conductance ([1]; odorant at 100 μM (FIG. 11)) | Source-drain current after introduction of odorant ([1]; 100 fM, 1 pM, 10 pM and 100 pM (FIG. 10)) | Effect on biosensor conductance ([1]; odorant at 1 pM (FIG. 11)) | Detection Limit [2] | Detection Limit [3] | Activation of hOR2AG1 (hOR2AG1)
1 | CCCCOC(=O)CCC [Butyl butyrate (BB), butyl butyrate] | 10 mM | did not affect the biosensor | – | – | – | – | –
2 | CCCCCOC(=O)CCC [Amyl butyrate (AB), amyl butyrate] | 1e-10 mM | – | sharply decreased | sharply decreased | 100 mM | 100 mM | activated
3 | CCCOC(=O)CCC [Propyl butyrate (PB), propyl butyrate] | 10 mM | did not affect the biosensor | – | – | – | – | –
4 | CCCCCOC(=O)CCCC [Pentyl valerate (PV), pentyl valerate] | 10 mM | did not affect the biosensor | – | – | – | – | –
